This note sets out measurements from patent US9808003B2, “Herbicidally active 2-(substituted-phenyl)-cyclopentane-1,3-dione compounds and derivatives thereof” (Syngenta Limited, priority 2013, dated 2017).

Common to all, as to assay: Test 1A glasshouse assay, post-emergence herbicidal activity
What all share (type): in vivo

In test [1] the test system is Alopecurus myosuroides (ALOMY). The conditions noted are these: Alopecurus myosuroides, 312 h, application rate 250 g/ha, 13 days after application, visual (100%=total damage; 0%=no damage), read-out: Post-emergence Herbicidal Activity (% Phytotoxicity) ALOMY. In outline:
(§1)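 Read-out is visual percent phytotoxicity 13 days post-spray, 100% meaning total plant damage and 0% none. Seedlings were treated after 8 days' glasshouse cultivation with an aqueous spray of active ingredient in acetone/water 50:50 plus 0.5% Tween 20.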

The test system of a further test is Avena fatua (AVEFA). The conditions noted are these: Avena fatua, 312 h, application rate 250 g/ha, 13 days after application, visual (100%=total damage; 0%=no damage), read-out: Post-emergence Herbicidal Activity (% Phytotoxicity) AVEFA. In outline: as §1
A further test has as its system Lolium perenne (LOLPE). The conditions noted are these: Lolium perenne, 312 h, application rate 250 g/ha, 13 days after application, visual (100%=total damage; 0%=no damage), read-out: Post-emergence Herbicidal Activity (% Phytotoxicity) LOLPE. In outline:
as §1

Test [2] relates to Echinochloa crus-galli (ECHCG). The conditions noted are these: Echinochloa crus-galli, 312 h, application rate 250 g/ha, 13 days after application, visual (100%=total damage; 0%=no damage), read-out: Post-emergence Herbicidal Activity (% Phytotoxicity) ECHCG. In outline: as §1

Take `Cc1cc(-n2cc(Cl)cn2)cc(C)c1C1C(=O)CC(CCNC(=O)c2ccc(C#N)cn2)C1=O` (centres unmarked) [Compound A137]: the pest or weed control at 250 g/ha in test [1] was found to be 80%; with Avena fatua (AVEFA) it was 70%; in the test on Lolium perenne (LOLPE) it was 80%; in test [2] it was 100%.
For `Cc1cc(C)c(C2C(=O)CC(CCNC(=O)c3cnsn3)C2=O)c(C)c1` (centres unmarked) [Compound A60], the pest or weed control at 250 g/ha in test [1] came to 80%; with Avena fatua (AVEFA) it was 90%; in the test with Lolium perenne (LOLPE), 80%; in test [2], 70%.
Turning to `Cc1cc(C)c(C2C(=O)CC(CCNC(=O)c3c(C)noc3C)C2=O)c(C)c1` (centres unmarked) [Compound A179], the pest or weed control at 250 g/ha amounted to 70% in test [1], 100% with Avena fatua (AVEFA), 70% in the test on Lolium perenne (LOLPE) and 80% in test [2].
`Cc1cc(C)c(C2C(=O)CC(CCNC(=O)c3ncccc3F)C2=O)c(C)c1` (centres unmarked) [Compound A96]: the pest or weed control at 250 g/ha (in test [1]; with Avena fatua (AVEFA); in the test on Lolium perenne (LOLPE); in test [2]) was 100% each time.
Turning to `Cc1cc(C)c(C2C(=O)CC(CCNC(=O)c3c(C)nc4ccccn34)C2=O)c(C)c1` (centres unmarked) [Compound A76], the pest or weed control at 250 g/ha came to 70% in test [1], 90% with Avena fatua (AVEFA), 60% in the test with Lolium perenne (LOLPE) and 80% in test [2].
With `Cc1cc(C)c(C2C(=O)CC(CCNC(=O)c3cccnc3C(F)(F)F)C2=O)c(C)c1` (centres unmarked) [Compound A152], the pest or weed control at 250 g/ha in test [1] is 80%; with Avena fatua (AVEFA), 70%; with Lolium perenne (LOLPE) it was 70%; in test [2] it was 80%.
Turning to `Cc1cc(C)c(C2C(=O)CC(CCNC(=O)c3cnc(Cl)cn3)C2=O)c(C)c1` (centres unmarked) [Compound A195], the pest or weed control at 250 g/ha in test [1] is 30%; with Avena fatua (AVEFA), 30%; in the test with Lolium perenne (LOLPE), 60%; in test [2], 80%.
Regarding `Cc1cc(C)c(C2C(=O)CC(CCNC(=O)c3cc(Br)ccn3)C2=O)c(C)c1` (centres unmarked) [Compound A121], the pest or weed control at 250 g/ha in test [1] stood at 90%; with Avena fatua (AVEFA), 90%; in the test with Lolium perenne (LOLPE) it was 100%; in test [2] it was 100%.
Take `Cc1cc(C)c(C2C(=O)CC(CCNC(=O)c3nn(C)nc3C)C2=O)c(C)c1` (centres unmarked) [Compound A54]: the pest or weed control at 250 g/ha in test [1] was 100%; with Avena fatua (AVEFA) it was 100%; in the test with Lolium perenne (LOLPE), 100%; in test [2] it was 60%.
On to `Cc1cc(-n2cc(C#N)cn2)cc(C)c1C1C(=O)CC(CCNC(=O)c2ccccn2)C1=O` (centres unmarked) [Compound A142, N-[2-[3-[4-(4-cyanopyrazol-1-yl)-2,6-dimethyl-phenyl]-2,4-dioxo-cyclopentyl]ethyl]pyridine-2-carboxamide], for which the pest or weed control at 250 g/ha is 100% in test [1], 90% in the test on Avena fatua (AVEFA), 100% with Lolium perenne (LOLPE) and 100% in test [2].
As to `Cc1cc(-n2cc(Cl)cn2)cc(C)c1C1C(=O)CC(CCNC(=O)c2cc(Cl)ccn2)C1=O` (centres unmarked) [Compound A138], the pest or weed control at 250 g/ha in test [1] is 100%; with Avena fatua (AVEFA) it was 90%; in the test on Lolium perenne (LOLPE), 100%; in test [2], 100%.
For the compound `Cc1cc(C)c(C2C(=O)CC(CCNC(=O)c3ncc(Cl)cc3F)C2=O)c(C)c1` (centres unmarked) [Compound A189], the pest or weed control at 250 g/ha (in test [1]; with Avena fatua (AVEFA); with Lolium perenne (LOLPE); in test [2]) was 100% throughout.
Consider `Cc1cc(C)c(C2C(=O)CC(CCNC(=O)c3cccc[n+]3[O-])C2=O)c(C)c1` (centres unmarked) [Compound A37], for which the pest or weed control at 250 g/ha in test [1] was found to be 100%; in the test on Avena fatua (AVEFA), 80%; with Lolium perenne (LOLPE), 90%; in test [2], 80%.
In the case of `Cc1cc(C)c(C2C(=O)CC(CCNC(=O)c3cncc(Cl)c3)C2=O)c(C)c1` (centres unmarked) [Compound A157], the pest or weed control at 250 g/ha in test [1] turned out to be 70%; in the test with Avena fatua (AVEFA), 70%; in the test with Lolium perenne (LOLPE), 70%; in test [2], 90%.
For `Cc1cc(C)c(C2C(=O)CC(CCNC(=O)c3ccc(F)cc3F)C2=O)c(C)c1` (centres unmarked) [Compound A17], the pest or weed control at 250 g/ha is 80% in test [1], 90% in the test on Avena fatua (AVEFA), 100% in the test on Lolium perenne (LOLPE) and 100% in test [2].
Consider `Cc1cc(C)c(C2C(=O)CC(CCNC(=O)c3nc(C)oc3C(F)(F)F)C2=O)c(C)c1` (centres unmarked) [Compound A71], for which the pest or weed control at 250 g/ha in test [1] is 100%; in the test with Avena fatua (AVEFA), 90%; in the test on Lolium perenne (LOLPE) it was 100%; in test [2] it was 80%.
For `COCc1nc(C2CC2)c(C(=O)NCCC2CC(=O)C(c3c(C)cc(C)cc3C)C2=O)s1` (centres unmarked) [Compound A174], the pest or weed control at 250 g/ha in test [1] worked out at 90%; in the test with Avena fatua (AVEFA) it was 100%; in the test on Lolium perenne (LOLPE), 100%; in test [2], 90%.
Take `Cc1cc(-c2ncc(Cl)cc2F)cc(C)c1C1C(=O)CC(CCNC(=O)c2ccccn2)C1=O` (centres unmarked) [Compound A102]: the pest or weed control at 250 g/ha (in test [1]; with Avena fatua (AVEFA); in the test with Lolium perenne (LOLPE); in test [2]) was 100% throughout.
For the compound `Cc1cc(C)c(C2C(=O)CC(CCNC(=O)c3ncc(Br)cc3F)C2=O)c(C)c1` (centres unmarked) [Compound A185], the pest or weed control at 250 g/ha in test [1] amounted to 90%; with Avena fatua (AVEFA) it was 100%; in the test on Lolium perenne (LOLPE), 100%; in test [2], 100%.
As to `Cc1cc(C)c(C2C(=O)CC(CCNC(=O)c3ncc(C#N)cc3Cl)C2=O)c(C)c1` (centres unmarked) [Compound A150], the pest or weed control at 250 g/ha in test [1] came to 70%; in the test on Avena fatua (AVEFA) it was 90%; in the test with Lolium perenne (LOLPE), 80%; in test [2] it was 80%.
Regarding `Cc1cc(Oc2ncc(Cl)cc2F)cc(C)c1C1C(=O)CC(CCNC(=O)c2ccccn2)C1=O` (centres unmarked) [Compound A126A], the pest or weed control at 250 g/ha (in test [1]; in the test on Avena fatua (AVEFA); in the test with Lolium perenne (LOLPE); in test [2]) was 90% in each case.
In the case of `Cc1cc(C)c(C2C(=O)CC(CCNC(=O)c3ccc(C=C(F)F)cn3)C2=O)c(C)c1` (centres unmarked) [Compound A190], the pest or weed control at 250 g/ha in test [1] amounted to 80%; in the test on Avena fatua (AVEFA), 90%; with Lolium perenne (LOLPE), 90%; in test [2], 90%.
In the case of `Cc1cc(Cl)c(C2C(=O)CC(CCNC(=O)c3ncccc3F)C2=O)c(Cl)c1` (centres unmarked) [Compound A144], the pest or weed control at 250 g/ha in test [1] worked out at 30%; in the test with Avena fatua (AVEFA) it was 90%; with Lolium perenne (LOLPE) it was 90%; in test [2], 100%.
With `Cc1cc(-c2ccc(F)c(Cl)c2)cc(C)c1C1C(=O)CC(CCNC(=O)c2ccccn2)C1=O` (centres unmarked) [Compound A110], the pest or weed control at 250 g/ha in test [1] came out at 90%; in the test with Avena fatua (AVEFA), 100%; in the test on Lolium perenne (LOLPE), 100%; in test [2], 100%.
Consider `CC#Cc1cc(C)c(C2C(=O)CC(CCNC(=O)c3ccc(F)cc3)C2=O)c(C)c1` (centres unmarked) [Compound A116], for which the pest or weed control at 250 g/ha in test [1] stood at 90%; with Avena fatua (AVEFA), 100%; with Lolium perenne (LOLPE), 100%; in test [2], 100%.
`Cc1cc(OCC(F)(F)F)cc(C)c1C1C(=O)CC(CCNC(=O)c2ccccn2)C1=O` (centres unmarked) [Compound A126, N-[2-[3-[2,6-dimethyl-4-(2,2,2-trifluoroethoxy)phenyl]-2,4-dioxo-cyclopentyl]ethyl]pyridine-2-carboxamide]: the pest or weed control at 250 g/ha (in test [1]; in the test on Avena fatua (AVEFA); with Lolium perenne (LOLPE); in test [2]) was 100% each time.
`Cc1cc(-n2cc(Cl)cn2)cc(C)c1C1C(=O)CC(CCNC(=O)c2ccc(Cl)cn2)C1=O` (centres unmarked) [Compound A155]: the pest or weed control at 250 g/ha (in test [1]; in the test on Avena fatua (AVEFA); with Lolium perenne (LOLPE); in test [2]) was 100% throughout.
Turning to `Cc1cccc(C)c1C1C(=O)CC(CCNC(=O)c2ccccn2)C1=O` (centres unmarked) [Compound A123], the pest or weed control at 250 g/ha amounted to 100% in test [1], 100% with Avena fatua (AVEFA), 100% in the test with Lolium perenne (LOLPE) and 90% in test [2].
On to `CC#Cc1cc(C)c(C2C(=O)CC(CCNC(=O)C(C)(C)C)C2=O)c(C)c1` (centres unmarked) [Compound A115], for which the pest or weed control at 250 g/ha (in test [1]; in the test with Avena fatua (AVEFA); in the test on Lolium perenne (LOLPE); in test [2]) was 100% throughout.
